In patent US9493446B2, “Orexin receptor antagonists which are [ortho bi-(hetero-)aryl]-[2-(meta bi-(hetero-)aryl)-pyrrolidin-1-yl]-methanone derivatives” (Actelion Pharmaceuticals Ltd, priority 2012, dated 2016):
Like-named read-outs stand apart in the source and are kept apart here.

Tests used:
orexin-1 = orexin-1 (Homo sapiens (Human), UniProt O43613); assay: Intracellular calcium measurement (FLIPR), CHO cells expressing human orexin-1 receptor, 3 nM orexin-A; assay type: cell-based; settings: read-out: IC50 OX1
In short: (§1)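 HBSS buffer with 0.1% BSA, NaHCO3 and 20 mM HEPES carries both compounds and agonist. Dye: fluo-4 AM (3 μM) with 5 mM probenecid. Compound exposure 120 min; peak signal scored against uninhibited orexin-A response.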

human orexin-2 receptor = human orexin-2 receptor (Homo sapiens (Human), UniProt O43614); assay: Intracellular calcium measurement (FLIPR), CHO cells expressing human orexin-2 receptor, 3 nM orexin-A; assay type: cell-based; settings: read-out: IC50 OX2
In short: as §1

[1] = CHO cells expressing human orexin-1 receptor, FLIPR, 3 nM orexin-A, geometric mean if determined several times
[2] = CHO cells expressing human orexin-2 receptor, FLIPR, 3 nM orexin-A, geometric mean if determined several times

orexin-1, sequence (O43613 whole entry): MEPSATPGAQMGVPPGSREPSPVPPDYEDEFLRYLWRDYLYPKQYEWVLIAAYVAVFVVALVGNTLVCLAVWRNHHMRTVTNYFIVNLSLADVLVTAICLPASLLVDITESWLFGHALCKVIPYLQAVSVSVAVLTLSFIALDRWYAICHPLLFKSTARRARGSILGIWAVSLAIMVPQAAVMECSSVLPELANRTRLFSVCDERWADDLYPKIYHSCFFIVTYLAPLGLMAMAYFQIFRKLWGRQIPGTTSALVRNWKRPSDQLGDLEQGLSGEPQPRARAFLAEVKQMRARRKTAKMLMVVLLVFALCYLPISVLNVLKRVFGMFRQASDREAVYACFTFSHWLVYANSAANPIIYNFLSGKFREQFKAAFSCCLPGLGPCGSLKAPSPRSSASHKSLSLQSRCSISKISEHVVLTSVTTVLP
human orexin-2 receptor, sequence (O43614 whole entry): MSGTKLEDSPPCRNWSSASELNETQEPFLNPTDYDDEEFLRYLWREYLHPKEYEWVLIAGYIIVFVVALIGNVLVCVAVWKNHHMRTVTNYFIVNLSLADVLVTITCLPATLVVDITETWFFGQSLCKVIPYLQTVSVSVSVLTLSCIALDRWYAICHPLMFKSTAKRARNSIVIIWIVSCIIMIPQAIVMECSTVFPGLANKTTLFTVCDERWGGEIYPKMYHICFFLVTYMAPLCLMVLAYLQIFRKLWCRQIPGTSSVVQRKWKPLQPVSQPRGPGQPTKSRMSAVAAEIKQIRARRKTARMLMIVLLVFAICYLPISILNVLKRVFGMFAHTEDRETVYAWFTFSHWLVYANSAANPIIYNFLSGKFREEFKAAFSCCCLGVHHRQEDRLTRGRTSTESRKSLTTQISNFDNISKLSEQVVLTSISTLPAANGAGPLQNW

Compound | IC50 (orexin-1; [1]) | IC50 (human orexin-2 receptor; [2]) | IC50 (orexin-1) | IC50 (human orexin-2 receptor)
Cc1ccc(C)c(-c2nc([C@@H]3CCCN3C(=O)c3ccc(C)cc3-n3nccn3)no2)c1 [compound 393, {(S)-2-[5-(2,5-Dimethyl-phenyl)-[1,2,4]oxadiazol-3-yl]-pyrrolidin-1-yl}-(4-methyl-2-[1,2,3]triazol-2-yl-phenyl)-methanone] | 57 nM | 10 nM |  | 
Cc1cccc(-c2nc([C@@H]3CCCN3C(=O)c3cc(Cl)ccc3-n3nccn3)no2)c1C [compound 394] |  | 12 nM | 134 nM | 
CCc1ccccc1-c1nc([C@@H]2CCCN2C(=O)c2cc(Cl)ccc2-n2nccn2)no1 [compound 395] |  |  | 31 nM | 10 nM
Cc1ccc(C)c(-c2nc([C@@H]3CCCN3C(=O)c3cc(Cl)ccc3-n3nccn3)no2)c1 [compound 396] |  |  | 134 nM | 15 nM
Cc1cccc(-c2nc([C@@H]3CCCN3C(=O)c3ccc(Cl)cc3-n3nccn3)no2)c1C [compound 397] |  | 5 nM | 85 nM | 
CCc1ccccc1-c1nc([C@@H]2CCCN2C(=O)c2ccc(Cl)cc2-n2nccn2)no1 [compound 398] |  | 18 nM | 33 nM | 
Cc1ccc(C)c(-c2nc([C@@H]3CCCN3C(=O)c3ccc(Cl)cc3-n3nccn3)no2)c1 [compound 399] |  | 10 nM | 77 nM | 
Cc1cc(C(=O)N2CCC[C@H]2c2noc(-c3cccc(C)c3C)n2)c(-n2nccn2)cc1C [compound 400, {(S)-2-[5-(2,3-Dimethyl-phenyl)-[1,2,4]oxadiazol-3-yl]-pyrrolidin-1-yl}-(4,5-dimethyl-2-[1,2,3]triazol-2-yl-phenyl)-methanone] | 36 nM | 4 nM |  | 
CCc1ccccc1-c1nc([C@@H]2CCCN2C(=O)c2cc(C)c(C)cc2-n2nccn2)no1 [compound 401, (4,5-Dimethyl-2-[1,2,3]triazol-2-yl-phenyl)-{(S)-2-[5-(2-ethyl-phenyl)-[1,2,4]oxadiazol-3-yl]-pyrrolidin-1-yl}-methanone] | 7 nM | 3 nM |  | 
Cc1ccc(C)c(-c2nc([C@@H]3CCCN3C(=O)c3cc(C)c(C)cc3-n3nccn3)no2)c1 [compound 402, {(S)-2-[5-(2,5-Dimethyl-phenyl)-[1,2,4]oxadiazol-3-yl]-pyrrolidin-1-yl}-(4,5-dimethyl-2-[1,2,3]triazol-2-yl-phenyl)-methanone] | 164 nM | 2 nM |  | 
COc1cc(C(=O)N2CCC[C@H]2c2noc(-c3cccc(C)c3C)n2)c(-n2nccn2)cc1C [compound 403, {(S)-2-[5-(2,3-Dimethyl-phenyl)-[1,2,4]oxadiazol-3-yl]-pyrrolidin-1-yl}-(5-methoxy-4-methyl-2-[1,2,3]triazol-2-yl-phenyl)-methanone] | 25 nM | 2 nM |  | 
CCc1ccccc1-c1nc([C@@H]2CCCN2C(=O)c2cc(OC)c(C)cc2-n2nccn2)no1 [compound 404, {(S)-2-[5-(2-Ethyl-phenyl)-[1,2,4]oxadiazol-3-yl]-pyrrolidin-1-yl}-(5-methoxy-4-methyl-2-[1,2,3]triazol-2-yl-phenyl)-methanone] | 23 nM | 3 nM |  | 
COc1cc(C(=O)N2CCC[C@H]2c2noc(-c3cc(C)ccc3C)n2)c(-n2nccn2)cc1C [compound 405, {(S)-2-[5-(2,5-Dimethyl-phenyl)-[1,2,4]oxadiazol-3-yl]-pyrrolidin-1-yl}-(5-methoxy-4-methyl-2-[1,2,3]triazol-2-yl-phenyl)-methanone] | 33 nM | 1 nM |  | 
COc1cc(C(=O)N2CCC[C@H]2c2noc(-c3cccc(C)c3C)n2)c(-n2nccn2)cc1Cl [compound 406] | 22 nM | 2 nM |  | 
CCc1ccccc1-c1nc([C@@H]2CCCN2C(=O)c2cc(OC)c(Cl)cc2-n2nccn2)no1 [compound 407] | 15 nM | 3 nM |  | 
COc1cc(C(=O)N2CCC[C@H]2c2noc(-c3cc(C)ccc3C)n2)c(-n2nccn2)cc1Cl [compound 408] | 31 nM | 2 nM |  | 
COc1cc(C)cc(-c2nc([C@@H]3CCCN3C(=O)c3cc(C)ccc3-n3nccn3)no2)c1 [compound 409, {(S)-2-[5-(3-Methoxy-5-methyl-phenyl)-[1,2,4]oxadiazol-3-yl]-pyrrolidin-1-yl}-(5-methyl-2-[1,2,3]triazol-2-yl-phenyl)-methanone] | 45 nM | 12 nM |  | 
COc1ccc(C)c(-c2nc([C@@H]3CCCN3C(=O)c3cc(C)ccc3-n3nccn3)no2)c1 [compound 410, {(S)-2-[5-(5-Methoxy-2-methyl-phenyl)-[1,2,4]oxadiazol-3-yl]-pyrrolidin-1-yl}-(5-methyl-2-[1,2,3]triazol-2-yl-phenyl)-methanone] | 140 nM | 14 nM |  | 

Compound | IC50 (orexin-1; [1]) | IC50 (human orexin-2 receptor; [2]) | IC50 (orexin-1) | IC50 (human orexin-2 receptor)
COc1ccc(C)cc1-c1nc([C@@H]2CCCN2C(=O)c2cc(C)ccc2-n2nccn2)no1 [compound 411, {(S)-2-[5-(2-Methoxy-5-methyl-phenyl)-[1,2,4]oxadiazol-3-yl]-pyrrolidin-1-yl}-(5-methyl-2-[1,2,3]triazol-2-yl-phenyl)-methanone] | 99 nM | 9 nM |  | 
COc1cc(C)cc(-c2nc([C@@H]3CCCN3C(=O)c3ccc(C)cc3-n3nccn3)no2)c1 [compound 412, {(S)-2-[5-(3-Methoxy-5-methyl-phenyl)-[1,2,4]oxadiazol-3-yl]-pyrrolidin-1-yl}-(4-methyl-2-[1,2,3]triazol-2-yl-phenyl)-methanone] | 109 nM | 80 nM |  | 
COc1ccc(C)c(-c2nc([C@@H]3CCCN3C(=O)c3ccc(C)cc3-n3nccn3)no2)c1 [compound 413, {(S)-2-[5-(5-Methoxy-2-methyl-phenyl)-[1,2,4]oxadiazol-3-yl]-pyrrolidin-1-yl}-(4-methyl-2-[1,2,3]triazol-2-yl-phenyl)-methanone] | 163 nM | 30 nM |  | 
COc1ccc(C)cc1-c1nc([C@@H]2CCCN2C(=O)c2ccc(C)cc2-n2nccn2)no1 [compound 414, {(S)-2-[5-(2-Methoxy-5-methyl-phenyl)-[1,2,4]oxadiazol-3-yl]-pyrrolidin-1-yl}-(4-methyl-2-[1,2,3]triazol-2-yl-phenyl)-methanone] | 331 nM | 35 nM |  | 
COc1cc(C)cc(-c2nc([C@@H]3CCCN3C(=O)c3cc(Cl)ccc3-n3nccn3)no2)c1 [compound 415] | 193 nM |  |  | 49 nM
COc1ccc(C)c(-c2nc([C@@H]3CCCN3C(=O)c3cc(Cl)ccc3-n3nccn3)no2)c1 [compound 416] |  | 20 nM | 152 nM | 
COc1ccc(C)cc1-c1nc([C@@H]2CCCN2C(=O)c2cc(Cl)ccc2-n2nccn2)no1 [compound 417] | 271 nM | 21 nM |  | 
COc1cc(C)cc(-c2nc([C@@H]3CCCN3C(=O)c3ccc(Cl)cc3-n3nccn3)no2)c1 [compound 418] |  | 25 nM | 85 nM | 
COc1ccc(C)c(-c2nc([C@@H]3CCCN3C(=O)c3ccc(Cl)cc3-n3nccn3)no2)c1 [compound 419] | 207 nM |  |  | 16 nM
Cc1ccc(-n2nccn2)c(C(=O)N2CCC[C@H]2c2cc(-c3cccc(C)c3C)no2)c1 [compound 422, {(S)-2-[3-(2,3-Dimethyl-phenyl)-isoxazol-5-yl]-pyrrolidin-1-yl}-(5-methyl-2-[1,2,3]triazol-2-yl-phenyl)-methanone] | 152 nM | 4 nM |  | 
Cc1cc(C)cc(-c2cc([C@@H]3CCCN3C(=O)c3cc(C)ccc3-n3nccn3)on2)c1 [compound 423, {(S)-2-[3-(3,5-Dimethyl-phenyl)-isoxazol-5-yl]-pyrrolidin-1-yl}-(5-methyl-2-[1,2,3]triazol-2-yl-phenyl)-methanone] | 81 nM | 39 nM |  | 
Cc1ccc(-n2nccn2)c(C(=O)N2CCC[C@H]2c2cc(-c3cccc(Cl)c3C)no2)c1 [compound 424] | 8 nM | 4 nM |  | 
Cc1ccc(-n2nccn2)c(C(=O)N2CCC[C@H]2c2cc(-c3ccccc3OC(F)(F)F)no2)c1 [compound 425, (5-Methyl-2-[1,2,3]triazol-2-yl-phenyl)-{(S)-2-[3-(2-trifluoromethoxy-phenyl)-isoxazol-5-yl]-pyrrolidin-1-yl}-methanone] | 4 nM | 10 nM |  | 
COc1ncccc1-c1cc([C@@H]2CCCN2C(=O)c2cc(C)ccc2-n2nccn2)on1 [compound 426, {(S)-2-[3-(2-Methoxy-pyridin-3-yl)-isoxazol-5-yl]-pyrrolidin-1-yl}-(5-methyl-2-[1,2,3]triazol-2-yl-phenyl)-methanone] | 414 nM | 30 nM |  | 
Cc1ccc(-n2nccn2)c(C(=O)N2CCC[C@H]2c2cc(-c3cccnc3OC(C)C)no2)c1 [compound 427, {(S)-2-[3-(2-Isopropoxy-pyridin-3-yl)-isoxazol-5-yl]-pyrrolidin-1-yl}-(5-methyl-2-[1,2,3]triazol-2-yl-phenyl)-methanone] | 80 nM | 292 nM |  | 
CCOc1ncccc1-c1cc([C@@H]2CCCN2C(=O)c2cc(C)ccc2-n2nccn2)on1 [compound 428, {(S)-2-[3-(2-Ethoxy-pyridin-3-yl)-isoxazol-5-yl]-pyrrolidin-1-yl}-(5-methyl-2-[1,2,3]triazol-2-yl-phenyl)-methanone] | 67 nM | 28 nM |  | 
COc1c(F)cccc1-c1cc([C@@H]2CCCN2C(=O)c2cc(C)ccc2-n2nccn2)on1 [compound 429, {(S)-2-[3-(3-Fluoro-2-methoxy-phenyl)-isoxazol-5-yl]-pyrrolidin-1-yl}-(5-methyl-2-[1,2,3]triazol-2-yl-phenyl)-methanone] | 98 nM | 26 nM |  | 
Cc1ccc(-n2nccn2)c(C(=O)N2CCC[C@H]2c2cc(-c3ccccc3)on2)c1 [compound 430, (5-Methyl-2-[1,2,3]triazol-2-yl-phenyl)-[(S)-2-(5-phenyl-isoxazol-3-yl)-pyrrolidin-1-yl]-methanone] | 359 nM | 51 nM |  | 
